Assay results published in patent US12509431B2, “1,4-dihydroquinazolinone compounds and uses thereof” (Edgewise Therapeutics, Inc., priority 2022, dated 2025).

How the values were obtained:
Assay type in all cases: biochemical
Conditions in all cases: Table 8
[1] = tested on: Rabbit Skeletal myofibrils (rabbit psoas muscle); assay: Myofibril ATPase assay (PK/LDH NADH-coupled), skeletal myofibrils
Procedure: (§1) Myofibril ATPase assays are known in the art to be useful in evaluating small molecules for the treatment of HCM and other cardiac indications. Myosin ATPase activity is assessed by using a coupled reaction system, in which ADP generated by the myosin ATPase function is coupled to the disappearance of NADH through the pyruvate kinase/lactate dehydrogenase (PK-LDH) system. ATPase activity produces ADP, which is used as a substrate for PK to produce pyruvate and regenerate ATP. The pyruvate is then used as a substrate by LDH to oxidize NADH to NAD+. The rate of the reaction is monitored through the time-dependent disappearance of NADH using absorbance at 340 nm, which, when the couple system is in stoichiometric excess, is directly correlated to the ATPase activity of the myosin. Inhibition of ATPase activity by the assayed compounds is indicated by a reduced rate of NADH loss, relative to vehicle-treated controls, over the experimental time window. Rabbit Skeletal and Porcine Ventricle are the primary sources of myofibril material.
(§2) Materials: The following stock solutions and reagents were used in the Myofibril ATPase Assay:
(§3) Stock Solutions of pCa buffer. Combine PIPES, CaCl2), and EGTA solutions with water. Adjust pH to 7.0 and bring final volume to 100 mL.
(§4) Buffer A & Buffer B. Prepare buffers A and B according to the table below.
(§5) Myofibril ATPase Assay Procedure: BSA, ATP, NADH, PEP, and DTT solutions were thawed at room temperature, then transferred to ice. Pellet-frozen myofibrils were transferred with approximately twice the required volume into a sufficiently large tube and capped. Myofibrils were thawed by rolling in a water bath for approximately 15 min at room temperature and cooled on ice. Buffers A and B were prepared by adjusting volumes as necessary for required number of wells and stored on ice. 0.5 μL of the compounds to be assayed were added into wells. 25 μL of Buffer A was dispensed into the wells, followed by 25 μL of Buffer B. The wells were measured for absorbance at 340 nm, using a kinetic protocol in which the wells are read every 1.5-2 min for 75 min. Assay data analysis was performed using a python script that filtered the raw data to retain those points falling between a starting and ending time and between a maximum and minimum absorbance, then used the filtered time-domain 340 nm absorbance data in each well to calculate a slope via linear regression analysis in units of mAU/min. Compound slopes were normalized between 100% and 0% activity, where 100% represented the slope of wells containing only compound vehicle, and fit to a 4-parameter logistic model. In addition to the fit parameters, the EC25% is calculated, relative to the 100% normalized value. In the case of inhibitors, EC50% is also calculated, if available. Fit parameters, calculated effective concentrations, filtered raw data, and calculated slopes were exported, in addition to compound-specific graphs of normalized ATPase activity versus concentration in μM.
Skeletal Myofibril Isolation:
Myofibrils from various animals and tissue types were acquired from a variety of sources: rabbit psoas muscle was purchased from Pel-Freez Biologicals (Rogers, AR) and porcine cardiac muscle was purchased from Exemplar Genetics. All myofibrils were prepared using a method based upon those described in Herrmann et al. (1993) and summarized here. Minced tissue was homogenized for 50 sec with a Polytron homogenizer into 10 volumes (relative to weight in grams) of Isolation Buffer A (50 mM Tris, pH 8.0, 0.1 M potassium acetate, 5 mM KCl, 2 mM DTT, 5 mM EDTA, 0.5% v/v Triton X-100) supplemented with 0.1 mM PMSF, 10 μM leupeptin, 5 μM pepstatin, and 0.5 mM sodium azide. The myofibrils were recovered by centrifugation (Beckman Allegra 6R, 1200 g, 10 min) and resuspended in 10 volumes Isolation Buffer B (Buffer A above without protease inhibitors or sodium azide). The myofibrils were further homogenized as before and recovered by centrifugation. […]

Porcine Atria myofibrils = assay: Myofibril ATPase assay (PK/LDH NADH-coupled), atria myofibrils
Procedure: as §5

[2] = target: T1, Porcine Ventricle myofibrils (left ventricle of Yucatan minipigs) (Sus scrofa, UniProt P79293); assay: Myofibril ATPase assay (PK/LDH NADH-coupled), ventricle myofibrils
T1 construct: Myofibrils from porcine cardiac muscle was isolated from the left ventricle of Yucatan minipigs; tissue Exemplar Genetics; host or cells: left ventricle of Yucatan minipigs
Procedure: as §1, §2, §3, §4, §5
Cardiac Myofibril Isolation:
Myofibrils from porcine cardiac muscle was isolated from the left ventricle of Yucatan minipigs. Myofibrils were prepared using a method based upon those described in Herrmann et al. (1993) and summarized here. Minced tissue was homogenized for 50 sec with a Polytron homogenizer into 10 volumes (relative to weight in grams) of Isolation Buffer A (75 mM KCl, 10 mM Imidazole, 2 mM MgCl2, 2 mM EGTA, 1 mM NaN3, 1% v/v Triton X-100) supplemented with 4 mM Phosphocreatine, 1 mM ATP, 50 mM BDM, 1 mM DTT, 1 mM Benzamide HCl, 0.1 mM PMSF, 10 μM leupeptin, 5 μM pepstatin, and 10 mM EDTA. The myofibrils were recovered by centrifugation (Beckman Allegra 6R, 1200 g, 15 min) and resuspended in 10 volumes Isolation Buffer B (Buffer A above without supplemental reagents). The myofibrils were further homogenized described above and recovered by centrifugation for 7 mins. Cellular membranes and debris were removed by 3 washes in Isolation Buffer B, centrifuging each as before. […]

T1 sequence (P79293 whole entry): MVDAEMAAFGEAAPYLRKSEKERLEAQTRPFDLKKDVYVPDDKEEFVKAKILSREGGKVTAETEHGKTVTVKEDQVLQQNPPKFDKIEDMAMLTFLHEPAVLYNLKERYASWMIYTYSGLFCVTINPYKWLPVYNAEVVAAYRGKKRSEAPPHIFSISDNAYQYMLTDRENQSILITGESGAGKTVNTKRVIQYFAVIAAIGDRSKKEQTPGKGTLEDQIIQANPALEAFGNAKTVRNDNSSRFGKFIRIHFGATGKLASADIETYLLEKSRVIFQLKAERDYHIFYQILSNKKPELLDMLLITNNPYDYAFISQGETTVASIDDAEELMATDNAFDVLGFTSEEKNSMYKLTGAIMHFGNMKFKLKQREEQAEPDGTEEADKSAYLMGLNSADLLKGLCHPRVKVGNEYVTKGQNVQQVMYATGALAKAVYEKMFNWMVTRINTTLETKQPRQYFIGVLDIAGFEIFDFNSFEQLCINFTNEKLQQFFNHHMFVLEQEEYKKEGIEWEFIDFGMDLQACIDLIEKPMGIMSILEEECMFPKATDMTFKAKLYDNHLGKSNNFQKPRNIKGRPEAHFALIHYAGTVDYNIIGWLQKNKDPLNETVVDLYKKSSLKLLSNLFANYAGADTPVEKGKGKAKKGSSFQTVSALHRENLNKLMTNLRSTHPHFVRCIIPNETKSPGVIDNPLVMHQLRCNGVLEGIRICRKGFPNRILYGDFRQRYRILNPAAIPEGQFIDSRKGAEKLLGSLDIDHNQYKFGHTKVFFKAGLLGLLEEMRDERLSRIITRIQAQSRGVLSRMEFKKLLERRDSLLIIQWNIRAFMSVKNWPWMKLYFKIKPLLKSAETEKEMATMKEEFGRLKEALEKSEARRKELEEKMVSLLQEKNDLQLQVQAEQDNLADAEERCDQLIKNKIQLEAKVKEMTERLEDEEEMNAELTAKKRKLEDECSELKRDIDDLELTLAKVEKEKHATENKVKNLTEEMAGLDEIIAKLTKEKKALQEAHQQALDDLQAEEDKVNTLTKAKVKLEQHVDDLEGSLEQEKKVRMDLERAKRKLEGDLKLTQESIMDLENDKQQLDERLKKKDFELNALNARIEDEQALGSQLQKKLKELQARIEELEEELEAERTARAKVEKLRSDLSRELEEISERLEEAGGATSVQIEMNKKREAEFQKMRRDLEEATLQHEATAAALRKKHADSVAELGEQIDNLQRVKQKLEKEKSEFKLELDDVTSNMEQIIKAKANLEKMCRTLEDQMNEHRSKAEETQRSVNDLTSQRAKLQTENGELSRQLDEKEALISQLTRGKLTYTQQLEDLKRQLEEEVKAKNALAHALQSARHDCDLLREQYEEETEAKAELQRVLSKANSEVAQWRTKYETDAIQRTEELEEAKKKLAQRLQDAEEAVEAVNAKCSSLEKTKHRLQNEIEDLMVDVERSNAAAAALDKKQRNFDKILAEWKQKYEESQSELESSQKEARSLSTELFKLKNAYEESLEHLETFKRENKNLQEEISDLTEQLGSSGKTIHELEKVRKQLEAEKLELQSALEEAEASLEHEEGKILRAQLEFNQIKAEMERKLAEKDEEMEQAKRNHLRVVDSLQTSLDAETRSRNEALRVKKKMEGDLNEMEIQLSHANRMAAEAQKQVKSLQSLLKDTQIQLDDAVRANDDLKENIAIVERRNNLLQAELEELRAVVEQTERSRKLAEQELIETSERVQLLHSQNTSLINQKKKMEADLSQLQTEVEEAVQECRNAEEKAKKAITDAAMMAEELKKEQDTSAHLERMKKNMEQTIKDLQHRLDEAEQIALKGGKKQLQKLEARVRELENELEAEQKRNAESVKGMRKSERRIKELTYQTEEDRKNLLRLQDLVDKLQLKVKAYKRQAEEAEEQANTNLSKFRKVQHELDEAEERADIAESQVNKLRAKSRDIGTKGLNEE

Rabbit Psoas IC25 [1] [nM]	Porcine Atria IC25 (Porcine Atria myofibrils) [nM]	Porcine Ventricle IC25 [2] [nM]	Structure (SMILES)
760.6	880	143	Cc1cc(F)c2c(c1)NC(=O)N(CC(=O)N[C@H](C)c1ccc(C#N)cc1F)C2 [Compound B12]
13.2	60	86	Cc1cc(F)c2c(c1)NC(=O)N(CC(=O)N[C@@H](C)c1ccc(C#N)cc1F)C2 [Compound B13, N-[(1S)-1-(4-Cyano-2-fluorophenyl)ethyl]-2-(5-fluoro-7-methyl-2-oxo-1,4-dihydroquinazolin-3-yl)acetamide]
93.4	150	84.4	CCc1cc(F)cnc1[C@@H](C)NC(=O)CN1Cc2c(ccc(F)c2F)NC1=O [Compound B14]
100000	100000	100000	CCc1cc(F)cnc1[C@H](C)NC(=O)CN1Cc2c(ccc(F)c2F)NC1=O [Compound B15]
1205	230	1057	C[C@@H](NC(=O)CN1Cc2c(ccc(F)c2F)NC1=O)c1ccc(C#N)nn1 [Compound B16]
100000	2250	100000	O=C(CN1Cc2c(ccc(F)c2F)NC1=O)N[C@@H]1CS(=O)(=O)c2cc(F)cc(F)c21 [Compound B18]
100000	100000	100000	O=C(CN1Cc2c(ccc(F)c2F)NC1=O)N[C@H]1CS(=O)(=O)c2cc(F)cc(F)c21 [Compound B19]
100000	100000	100000	CC(C)c1cc(F)cnc1[C@@H](C)NC(=O)CN1Cc2c(ccc(F)c2F)NC1=O [Compound B20]
100000	100000	100000	CC(C)c1cc(F)cnc1[C@H](C)NC(=O)CN1Cc2c(ccc(F)c2F)NC1=O [Compound B21]
901.2	10830	6451	Cc1cc(C#N)nnc1[C@@H](C)NC(=O)CN1Cc2c(ccc(F)c2F)NC1=O [Compound B22]
30610	100000	100000	Cc1ccnnc1[C@@H](C)NC(=O)CN1Cc2c(ccc(F)c2F)NC1=O [Compound B24]
100000	100000	100000	C[C@@H](NC(=O)CN1Cc2cc(F)cc(C#N)c2NC1=O)c1ccc(C#N)cc1F [Compound B26]
542.2	2100	15590	C[C@H](NC(=O)CN1Cc2cc(F)cc(C#N)c2NC1=O)c1ccc(C#N)cc1F [Compound B27]
100000	6240	100000	C[C@@H](NC(=O)CN1Cc2cc(F)cc(F)c2NC1=O)c1ccc(C#N)cc1F [Compound B28]
124.5	110	682.4	C[C@H](NC(=O)CN1Cc2cc(F)cc(F)c2NC1=O)c1ccc(C#N)cc1F [Compound B29]
100000	70	100000	Cc1ccc2c(c1F)CN(CC(=O)N[C@H](C)c1ccc(C#N)cc1F)C(=O)N2 [Compound B30]
10	20	42.1	Cc1ccc2c(c1F)CN(CC(=O)N[C@@H](C)c1ccc(C#N)cc1F)C(=O)N2 [Compound B31, N-[(1S)-1-(4-cyano-2-fluorophenyl)ethyl]-2-(5-fluoro-6-methyl-2-oxo-1,4-dihydroquinazolin-3-yl)acetamide]
1003	280	548	C[C@@H](NC(=O)CN1Cc2c(F)cc(Cl)cc2NC1=O)c1ccc(C#N)cc1F [Compound B32]
9.3	20	66.7	C[C@H](NC(=O)CN1Cc2c(F)cc(Cl)cc2NC1=O)c1ccc(C#N)cc1F [Compound B33, 2-(7-Chloro-5-fluoro-2-oxo-1,4-dihydroquinazolin-3-yl)-N-[(1S)-1-(4-cyano-2-fluorophenyl)ethyl]acetamide]
100000	160	3618	Cc1cc([C@@H](C)NC(=O)CN2Cc3c(ccc(F)c3F)NC2=O)ncc1C#N [Compound B34]
10.5	20	14.8	C[C@@H](NC(=O)CN1Cc2c(ccc(F)c2F)NC1=O)c1ncc(F)cc1Cl [Compound B36]
384.4	280	490.1	C[C@H](NC(=O)CN1Cc2c(ccc(F)c2F)NC1=O)c1ncc(F)cc1Cl [Compound B37]
10640	980	3820	Cc1cc(F)cnc1[C@@H](C)NC(=O)CN1Cc2c(ccc(F)c2F)NC1=O [Compound B38]
20.3	20	48.3	Cc1cc(F)cnc1[C@H](C)NC(=O)CN1Cc2c(ccc(F)c2F)NC1=O [Compound B39]
100000	100000	17720	C[C@@H](NC(=O)CN1Cc2cc(F)cc(Cl)c2NC1=O)c1ccc(C#N)cc1F [Compound B40]
85.7	1740	1384	C[C@H](NC(=O)CN1Cc2cc(F)cc(Cl)c2NC1=O)c1ccc(C#N)cc1F [Compound B41]
745.5	590	3177	C[C@@H](NC(=O)CN1Cc2c(F)cc(F)cc2NC1=O)c1ccc(C#N)cc1F [Compound B42]
15.8	40	47.3	C[C@H](NC(=O)CN1Cc2c(F)cc(F)cc2NC1=O)c1ccc(C#N)cc1F [Compound B43]
4901	450	527.8	C[C@@H](NC(=O)CN1Cc2cc(F)c(F)cc2NC1=O)c1ccc(C#N)cc1F [Compound B44]
